Earlier results on one molecule are cited in patent US6974665B2, “In situ screening to optimize variables in organic reactions” (University of Nebraska, priority 2001, dated 2005).

SMILES strings stand for the structures.

The target of one data set is T1, cystathionine γ-synthase (Nicotiana tabacum, UniProt Q9ZPL5).
T1 sequence (Q9ZPL5 79-540): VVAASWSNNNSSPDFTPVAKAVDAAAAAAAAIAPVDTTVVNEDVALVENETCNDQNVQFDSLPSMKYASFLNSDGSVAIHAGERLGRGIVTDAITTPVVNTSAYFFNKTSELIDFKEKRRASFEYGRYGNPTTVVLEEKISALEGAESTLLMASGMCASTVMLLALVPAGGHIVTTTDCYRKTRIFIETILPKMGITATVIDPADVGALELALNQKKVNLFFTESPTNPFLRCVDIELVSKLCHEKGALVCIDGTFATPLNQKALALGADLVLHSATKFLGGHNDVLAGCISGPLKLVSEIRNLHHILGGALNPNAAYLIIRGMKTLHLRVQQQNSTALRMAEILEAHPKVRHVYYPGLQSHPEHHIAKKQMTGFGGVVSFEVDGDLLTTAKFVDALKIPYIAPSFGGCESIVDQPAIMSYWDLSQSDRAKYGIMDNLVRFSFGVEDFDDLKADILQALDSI
The conditions noted are these: tight-binding reversible inhibitor.

The target in a further data set is T2, threonine synthase (Escherichia coli, UniProt P00934).
T2 sequence (P00934 1-428): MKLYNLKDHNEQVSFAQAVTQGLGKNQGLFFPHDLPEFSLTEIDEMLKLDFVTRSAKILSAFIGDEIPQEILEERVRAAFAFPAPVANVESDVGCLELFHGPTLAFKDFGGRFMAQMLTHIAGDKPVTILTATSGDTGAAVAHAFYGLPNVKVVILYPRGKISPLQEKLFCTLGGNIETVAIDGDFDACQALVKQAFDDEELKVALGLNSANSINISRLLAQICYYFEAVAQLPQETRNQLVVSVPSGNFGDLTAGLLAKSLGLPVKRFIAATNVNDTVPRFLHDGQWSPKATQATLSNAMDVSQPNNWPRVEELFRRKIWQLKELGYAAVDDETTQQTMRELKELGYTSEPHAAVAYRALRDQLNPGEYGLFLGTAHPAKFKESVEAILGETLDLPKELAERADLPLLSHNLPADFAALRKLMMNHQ
The note with it: irreversible inhibitor.

With `NC(/C=C/CP(=O)(O)O)C(=O)O` (stereo not drawn) [APPA, (E)-2-Amino-5-phosphono-3-pentenoic Acid], on cystathionine γ-synthase, the Ki was 27 µM. On threonine synthase, the Ki was 400 µM and the kinact (usually the rate constant of inactivation at saturating inhibitor) is 0.25 min⁻¹.
